# Legend:
# [1] = test system: Puccinia recondita f. Sp. Tritici; assay: Puccinia recondita f. sp. tritici / wheat / leaf disc preventative (brown rust); assay type: in vivo; conditions: foliar, 200 ppm in the applied formulation, wheat leaf segments cv. Kanzler, preventative (inoculated 1 day after application), compared to untreated, read-out: disease control
# In short: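 Compound, diluted from DMSO solution into aqueous 0.025% Tween20, is sprayed at 200 ppm onto cut wheat segments (cv. Kanzler) placed on water agar. One day on, segments receive a fungal spore suspension and are incubated at 19° C., 75% rh, 12 h photoperiod, with % control vs untreated scored at 7–9 days.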
# [2] = test system: Glomerella lacenarium (Colletotrichum lagenarium); assay: Glomerella lagenarium liquid culture / cucumber / preventative (anthracnose); assay type: cell-based; conditions: Colletotrichum orbiculare; 20 ppm in the applied formulation; liquid culture (PDB), growth inhibition measured photometrically 3 to 4 days after application; compared to untreated; read-out: disease control
# In short: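 Conidia from cryogenic storage were mixed into potato dextrose broth. This was added to compound diluted from DMSO into 0.025% Tween20, tested at 20 ppm. Plates were incubated in the dark at 24 °C and 96% relative humidity, and growth was read photometrically after 2–7 days as % activity versus untreated check.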
# Phakopsora pachyrhizi = Phakopsora pachyrhizi / soybean / leaf disc preventative (Asian soybean rust); assay type: in vivo; conditions: foliar, 200 ppm in the applied formulation, soybean leaf disks, compared to untreated, read-out: disease control
# In short: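 Read-out is percent disease control relative to untreated check discs, assessed once untreated discs show adequate disease, 12 to 14 days after application. Compounds, tested at 200 ppm in the applied formulation, are sprayed onto soybean leaf discs one day before inoculation with a spore suspension.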
# [3] = test system: Puccinia recondita f. Sp. Tritici; assay: Puccinia recondita f. sp. tritici / wheat / leaf disc curative (brown rust); assay type: in vivo; conditions: foliar, 24 h, 200 ppm in the applied formulation, wheat leaf segments cv. Kanzler, curative (applied 1 day after inoculation), compared to untreated, read-out: disease control
# In short: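 Compound applied 1 day after spore inoculation of wheat cv. Kanzler leaf segments on agar (dark, 19 °C, 75% RH before treatment). After further incubation under 12 h light/12 h dark at 19 °C and 75% RH, disease control relative to untreated segments rated 6–8 days post-application.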
SMILES,melting point,pest or weed control at 200 ppm [1],inhibition of growth at 20 ppm [2],pest or weed control at 200 ppm (Phakopsora pachyrhizi),pest or weed control at 200 ppm [3]
"O=C(COC(F)F)NCc1ccc(-c2noc(C(F)(F)F)n2)cc1 [Compound 1.97, 2-(difluoromethoxy)-N-[[4-[5-(trifluoromethyl)-1,2,4-oxadiazol-3-yl]phenyl]methyl]acetamide]",92 to 100 °C,≥ 80%,≥ 80%,≥ 80%,≥ 80%
"CCC(=O)NC1(c2ccc(-c3noc(C(F)(F)F)n3)cc2)CC1 [Compound 1.99, N-[1-[4-[5-(trifluoromethyl)-1,2,4-oxadiazol-3-yl]phenyl]cyclopropyl]propanamide]",121 to 128 °C,≥ 80%,≥ 80%,≥ 80%,≥ 80%
"CCC(=O)NC(C#N)c1ccc(-c2noc(C(F)(F)F)n2)cc1 (stereo not shown) [Compound 1.100, N-[cyano-[4-[5-(trifluoromethyl)-1,2,4-oxadiazol-3-yl]phenyl]methyl]propanamide]",185 to 186 °C,≥ 80%,≥ 80%,≥ 80%,≥ 80%
"CC(=O)NCc1ccc(-c2noc(C(F)(F)F)n2)cc1 [Compound 1.101, N-[[4-[5-(trifluoromethyl)-1,2,4-oxadiazol-3-yl]phenyl]methyl]acetamide]",130 to 135 °C,≥ 80%,≥ 80%,≥ 80%,≥ 80%
"O=C(NCc1ccc(-c2noc(C(F)(F)F)n2)cc1)C(F)(F)F [Compound 1.102, 2,2,2-trifluoro-N-[[4-[5-(trifluoromethyl)-1,2,4-oxadiazol-3-yl]phenyl]methyl]acetamide]",146 to 149 °C,≥ 80%,≥ 80%,≥ 80%,≥ 80%
"COC(C)(C)C(=O)NCc1ccc(-c2noc(C(F)(F)F)n2)cc1 [Compound 1.103, 2-methoxy-2-methyl-N-[[4-[5-(trifluoromethyl)-1,2,4-oxadiazol-3-yl]phenyl]methyl]propanamide]",77 to 80 °C,≥ 80%,≥ 80%,≥ 80%,≥ 80%
"CCC(=O)NCC(F)c1ccc(-c2noc(C(F)(F)F)n2)cc1 (stereo not shown) [Compound 1.107, N-[2-fluoro-2-[4-[5-(trifluoromethyl)-1,2,4-oxadiazol-3-yl]phenyl]ethyl]propanamide]",118 to 128 °C,≥ 80%,≥ 80%,≥ 80%,≥ 80%
"COCCOC(=O)NCc1ccc(-c2noc(C(F)(F)F)n2)cc1 [Compound 2.3, 2-methoxyethyl N-[[4-[5-(trifluoromethyl)-1,2,4-oxadiazol-3-yl]phenyl]methyl]carbamate]",82 to 85 °C,≥ 80%,≥ 80%,≥ 80%,≥ 80%
"COC(=O)NCc1ccc(-c2noc(C(F)(F)F)n2)cc1 [Compound 2.4, methyl N-[[4-[5-(trifluoromethyl)-1,2,4-oxadiazol-3-yl]phenyl]methyl]carbamate]",116 to 119 °C,≥ 80%,≥ 80%,≥ 80%,≥ 80%
"CCOC(=O)NCCc1ccc(-c2noc(C(F)(F)F)n2)cc1 [Compound 2.5, ethyl N-[2-[4-[5-(trifluoromethyl)-1,2,4-oxadiazol-3-yl]phenyl]ethyl]carbamate]",92 to 96 °C,≥ 80%,≥ 80%,≥ 80%,≥ 80%
"CCCOC(=O)NCc1ccc(-c2noc(C(F)(F)F)n2)cc1 [Compound 2.6, propyl N-[[4-[5-(trifluoromethyl)-1,2,4-oxadiazol-3-yl]phenyl]methyl]carbamate]",107.8 to 109.7 °C,≥ 80%,≥ 80%,≥ 80%,≥ 80%

# Further lines, with some results ahead:
melting point,SMILES,pest or weed control at 200 ppm [1],inhibition of growth at 20 ppm [2],pest or weed control at 200 ppm (Phakopsora pachyrhizi),pest or weed control at 200 ppm [3]
93 to 95 °C,"C#CCOC(=O)NCc1ccc(-c2noc(C(F)(F)F)n2)cc1 [Compound 2.19, prop-2-ynyl N-[[4-[5-(trifluoromethyl)-1,2,4-oxadiazol-3-yl]phenyl]methyl]carbamate]",≥ 80%,≥ 80%,≥ 80%,≥ 80%
84.8 to 86.5 °C,"COC(=O)NCCc1ccc(-c2noc(C(F)(F)F)n2)cc1 [Compound 2.36, methyl N-[2-[4-[5-(trifluoromethyl)-1,2,4-oxadiazol-3-yl]phenyl]ethyl]carbamat]",≥ 80%,≥ 80%,≥ 80%,≥ 80%
118 to 125 °C,"CN(C)C(=O)NCc1ccc(-c2noc(C(F)(F)F)n2)cc1 [Compound 3.1, 1,1-dimethyl-3-[[4-[5-(trifluoromethyl)-1,2,4-oxadiazol-3-yl]phenyl]methyl]urea]",≥ 80%,≥ 80%,≥ 80%,≥ 80%
90.2 to 93.8 °C,"CON(C)C(=O)NCc1ccc(-c2noc(C(F)(F)F)n2)cc1 [Compound 3.2, 1-methoxy-1-methyl-3-[[4-[5-(trifluoromethyl)-1,2,4-oxadiazol-3-yl]phenyl]methyl]urea]",≥ 80%,≥ 80%,≥ 80%,≥ 80%
152 to 155 °C,COCCNC(=O)NCc1ccc(-c2noc(C(F)(F)F)n2)cc1 [Compound 3.3],≥ 80%,≥ 80%,≥ 80%,≥ 80%
198 to 201 °C,"CNC(=O)NCc1ccc(-c2noc(C(F)(F)F)n2)cc1 [Compound 3.4, 1-methyl-3-[[4-[5-(trifluoromethyl)-l,2,4-oxadiazol-3-yl]phenyl]methyl]urea]",≥ 80%,≥ 80%,≥ 80%,≥ 80%
80 to 84 °C,"CON(C)C(=O)NCCc1ccc(-c2noc(C(F)(F)F)n2)cc1 [Compound 3.5, 1-methoxy-1-methyl-3-[2-[4-[5-(trifluoromethyl)-1,2,4-oxadiazol-3-yl]phenyl]ethyl]urea]",≥ 80%,≥ 80%,≥ 80%,≥ 80%
78 to 83 °C,"CON(C)C(=O)NC(C)(C)c1ccc(-c2noc(C(F)(F)F)n2)cc1 [Compound 3.25, 1-methoxy-1-methyl-3-[1-methyl-1-[4-[5-(trifluoromethyl)-1,2,4-oxadiazol-3-yl]phenyl]ethyl]urea]",≥ 80%,≥ 80%,≥ 80%,≥ 80%
81 to 83 °C,"CON(C)C(=O)NC1(c2ccc(-c3noc(C(F)(F)F)n3)cc2)CC1 [Compound 3.26, 1-methoxy-1-methyl-3-[1-[4-[5-(trifluoromethyl)-1,2,4-oxadiazol-3-yl]phenyl]cyclopropyl]urea]",≥ 80%,≥ 80%,≥ 80%,≥ 80%

# Source: US10501425B2, “Microbiocidal oxadiazole derivatives” (SYNGENTA PARTICIPATIONS AG, priority 2015, dated 2019)
